Test results published in BindingDB's records for doi:10.1021/jm00018a001 (Smithkline Beecham Pharmaceuticals, 1995).
pKi: −log10 of the molar value.

Tests used:
[1] = target: Alpha-1B adrenergic receptor (Mesocricetus auratus) (UniProt P18841); experiment: Binding affinity against Alpha-1B adrenergic receptor from hamster clones.
[2] = target: Alpha-1B adrenergic receptor (Mesocricetus auratus) (UniProt P18841); experiment: The compound was tested for binding affinity against Alpha-1B adrenergic receptor, from hamster clones.

Chain of Alpha-1B adrenergic receptor (Mesocricetus auratus) (P18841 whole entry, looked up): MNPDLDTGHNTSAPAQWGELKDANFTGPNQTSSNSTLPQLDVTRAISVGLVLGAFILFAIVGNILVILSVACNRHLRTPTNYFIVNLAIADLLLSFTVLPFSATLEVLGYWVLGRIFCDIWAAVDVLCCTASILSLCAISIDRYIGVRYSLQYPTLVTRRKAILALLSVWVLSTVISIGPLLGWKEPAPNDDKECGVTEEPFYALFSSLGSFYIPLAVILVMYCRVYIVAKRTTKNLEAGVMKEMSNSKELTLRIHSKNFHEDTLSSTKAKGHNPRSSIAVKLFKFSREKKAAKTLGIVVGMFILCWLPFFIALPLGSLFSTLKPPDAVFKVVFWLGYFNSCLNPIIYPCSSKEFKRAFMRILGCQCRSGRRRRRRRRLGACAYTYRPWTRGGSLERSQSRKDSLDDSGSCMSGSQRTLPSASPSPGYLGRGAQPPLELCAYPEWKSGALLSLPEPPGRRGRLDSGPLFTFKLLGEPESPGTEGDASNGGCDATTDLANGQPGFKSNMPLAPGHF

| SMILES | pKi [1] | pKi [2] |
| --- | --- | --- |
| COc1cc2nc(N(C)CCCNC(=O)C3CCCO3)nc(N)c2cc1OC (stereo not drawn) [N-{3-[(4-amino-6,7-dimethoxyquinazolin-2-yl)(methyl)amino]propyl}tetrahydrofuran-2-carboxamide] | 7.92 |  |
| COc1cc2c(cc1OC)CN(c1cc(N)c3cc(OC)c(OC)cc3n1)CC2 | 9.96 |  |
| O=C(NC1CCN(CCc2c[nH]c3ccccc23)CC1)c1ccccc1 [N-{1-[2-(1H-Indol-3-yl)-ethyl]-piperidin-4-yl}-benzamide(indoramin)] |  | 7.60 |
